# Entries after “also recorded” stand apart in the source; their conditions may differ.
# Legend:
# Type in all cases: physicochemical
# [1] = Heating to 170° C. and cooling to room temperature; settings: heated to 170° C., cooled to room temperature
# Description: Further XRPD, TGA, DSC and ^1H NMR analyses were performed after heating succinate Form A to 170° C. and then cooling to room temperature.
# [2] = Equilibrium solubility of Form A in water
# Description: Equilibrium solubility of Form A in water was measured at room temperature. The solid was suspended into H2O (˜800 rpm) at rt. After 24 h., the suspension was centrifuged (10000 rpm, 5 min) followed by filtration (0.45 μm PTFE membrane). The supernatant (first few drops were discarded) was analyzed by HPLC and the pH was measured. The residual solid was analyzed by XRPD.
# [3] = Solid state stability evaluation
# Description: Samples of Form A of N-(3-(5-((1-ethylpiperidin-4-yl)(methyl)amino)-3-(pyrimidin-5-yl)-1H-pyrrolo[3,2-b]pyridin-1-yl)-2,4-difluorophenyl)propane-1-sulfonamide monosuccinate salt were stored under at 80° C. for one day, at 25° C. under 60% RH and at 40° C. under 75% RH for one week.
# [4] = DVS isotherm of Form A (hygroscopicity)
# Description: DVS was measured via a SMS (Surface Measurement Systems) DVS Intrinsic. The relative humidity at 25° C. was calibrated against the deliquescence point of LiCl, Mg(NO3)2 and KCl.
# To investigate the solid form stability as a function of humidity, a DVS isotherm plot of Form A of N-(3-(5-((1-ethylpiperidin-4-yl)(methyl)amino)-3-(pyrimidin-5-yl)-1H-pyrrolo[3,2-b]pyridin-1-yl)-2,4-difluorophenyl)propane-1-sulfonamide monosuccinate salt was collected at 25° C. between 0 and 95% RH.
# [5] = 25 ° C., 60% RH/1 week (second condition column)
# [6] = 25 ° C., 60% RH/1 week (third condition column)
compound,measurement,setting,value
"CCCS(=O)(=O)Nc1ccc(F)c(-n2cc(-c3cncnc3)c3nc(N(C)C4CCN(CC)CC4)ccc32)c1F.O=C(O)CCC(=O)O [Monosuccinate Salt, N-(3-(5-((1-Ethylpiperidin-4-yl)(methyl)amino)-3-(pyrimidin-5-yl)-1H-pyrrolo[3,2-b]pyridin-1-yl)-2,4-difluorophenyl)propane-1-sulfonamide monosuccinate salt]",Crystalline form after heating (XRPD),[1],still succinate Type A
same,Form change during equilibrium solubility testing (XRPD),"[2]; rt, 24 h, listed as Form A, monosuccinate salt",no form change; also recorded: does not change
same,solubility thermodynamic at 24 h,"[2]; thermodynamic from solid, room temperature, HPLC",14.3 mg/mL
same,Form Change,[3]; [5],No
same,Purity (% of Initial),[3]; [5],100.0 % of Initial
same,Form Change,[3]; [6],No
same,Purity (% of Initial),[3]; [6],100.1 % of Initial
same,Form Change,[3]; 80% C/1 day,No
same,Purity (% of Initial),[3]; 80% C/1 day,99.9 % of Initial
same,"Solid state stability, form change or HPLC purity decrease",[3]; any of the storage conditions,No form change or HPLC purity decrease were observed
same,Water uptake (DVS),[4]; 25° C./80% RH,0.14%
same,Hygroscopicity,"[4]; DVS at 25° C., 0 to 95% RH, listed as Form A, monosuccinate salt",non-hygroscopic; also recorded: low hygroscopicity
same,Form change after DVS testing (XRPD),"[4]; listed as Form A, monosuccinate salt",did not result in any form change; also recorded: does not change form
